Measured values: article PMC6271950, “LC-MS/MS Determination and Pharmacokinetic Study of Dehydrocorydaline in Rat Plasma after Oral Administration of Dehydrocorydaline and Corydalis yanhusuo Extract” (Molecules, 2014)

Legend:
[1] = Plasma pharmacokinetics of DHC after oral administration of pure DHC or EFY; format: in vivo, Sprague-Dawley rats; conditions: Sprague-Dawley, DHC in rat plasma, equivalent dose of 97.5 mg/kg DHC (EFY 483 mg/kg), n = 5, mean ± SD
Method: DHC is the most abundant quaternary protoberberine-type alkaloid in EFY and has clear cardiovascular pharmacological activity. A fully validated LC-ESI-MS/MS method was developed and was successfully applied to a pharmacokinetic study of DHC when given in the two different dosage forms (EFY and pure compound) via oral administration in rats. The doses of DHC and EFY were 97.5 mg/kg and 483 mg/kg (equivalent to 97.5 mg/kg DHC), respectively. The mean plasma concentration-time profiles of DHC after the two doses are illustrated in Figure 5 and the estimated pharmacokinetic parameters are presented in Table 5.
For pharmacokinetics study, the rats were divided into two groups (n = 5 per group). Doses of 97.5 mg/kg of DHC or 483 mg/kg of EFY (equivalent to 97.5 mg/kg DHC, 20.19% DHC in EFY) were all gavage administrated. Blood samples (500 μL) were withdrawn from the oculi chorioideae vein into heparinized tubes before dosing and subsequently at 15, 30 and 45 min and then at 1, 2, 4, 6, 8, 12 and 24 h following initial administration. After 1 h and 8 h, 2 mL of normal saline was injected into the caudal vein to compensate for blood loss. After centrifuging at 4000 rpm for 10 min, plasma samples were obtained and frozen at −20 °C until analysis.
A 200 μL aliquot of plasma was vortex mixed for 3 min with 200 μL of water and 50 μL of IS (800 ng/mL). After centrifugation at 9000 rpm for 10 min, all the supernatant was loaded onto an Oasis HLB cartridge (Waters, Milford, MA, USA), which was pre-conditioned with 1 mL of methanol followed by 1 mL of deionized water. The loaded-cartridge was sequentially washed with 1 mL of water and 1 mL of 20% methanol. The analytes were then eluted with 1 mL of methanol in water containing 2% formic acid. The collected eluate was evaporated to dryness at 40 °C under a gentle stream of nitrogen. The residue was reconstituted in 150 μL of 10% acetonitrile, and 30 μL of the resulting sample was injected into the LC-MS/MS system for assay. Bile and urine samples were all processed in a similar manner as the plasma samples.
An Agilent 1100 system (Palo Alto, CA, USA) equipped with a vacuum degasser, a quaternary pump, and an auto-sampler were used. Chromatographic separation was achieved on an Atlantis T3 column (100 mm × 2.1 mm, 5 μm; Waters, Milford, MA, USA), which was eluted with a mobile phase of acetonitrile and water (containing 0.8% formic acid and 10 mM ammonium acetate) (28:72, v/v). The mobile phase was delivered at a flow-rate of 0.25 mL/min and 40% of the eluate was introduced into an API 3000 triple-quadrupole mass spectrometer (Applied Biosystems MDS SCIEX, Concord, ON, Canada) equipped with a TurboIonSpray electrospray ionization (ESI) source. Detection was performed using positive-ion electrospray ionization in multiple reaction monitoring (MRM) modes. The transitions from molecular ion to dominant product ion m/z 366→351[M−CH3] and m/z 348→332[M−CH3−H] [26, 27, 28] were monitored for DHC and IS, respectively. The optimized working parameters for mass detection were as follows. The nebulizer, curtain, and collision-activated dissociation gases were set at 11, 7 and 11 (instrument units), respectively. The TurboIonSpray voltage and temperature were set at 4.5 kV and 400 °C, respectively. All data acquisition was performed using Analyst software (v1.4, AB MDS SCIEX).
Pharmacokinetic parameters were established from the plasma concentration–time data using non-compartmental analysis. The terminal elimination rate constant (Ke) was determined by linear regression of the terminal portion of the plasma concentration-time data. The elimination half-life (t1/2) was calculated using the expression: t1/2 = ln2/Ke(2) The area under the curve (AUC) for the plasma concentration-time trace from zero to the last plasma drug concentration (AUC0–t) was calculated using the trapezoidal rule. […]

[2] = Biliary cumulative excretion of unchanged DHC after a single oral dose; format: in vivo, Sprague-Dawley rats; conditions: rat, single oral dose 97.5 mg/kg
Method: (§1) The cumulative excretion of DHC in bile and urine after a single i.g. dose of DHC (97.5 mg/kg) was determined. […] However, the urinary cumulative excretion of DHC was little. The mean accumulated amount of DHC in urine over 96 h was 0.17% ± 0.13% of dose. […] There might be a huge “first pass” effect in liver after oral administration and account for the trace plasma concentration.
For biliary excretion study, four rats were light anesthetized by ether and a PE-10 cannula was implanted into the bile duct to collect bile. A single dose of DHC was administered as described above. Bile samples were collected at 0–2, 2−4, 4−6, 6−8, 8−10, 10−24 and 24−48 h post-dosing and kept at −20 °C after the volume of each collection was recorded.
A 200 μL aliquot of plasma was vortex mixed for 3 min with 200 μL of water and 50 μL of IS (800 ng/mL). After centrifugation at 9000 rpm for 10 min, all the supernatant was loaded onto an Oasis HLB cartridge (Waters, Milford, MA, USA), which was pre-conditioned with 1 mL of methanol followed by 1 mL of deionized water. The loaded-cartridge was sequentially washed with 1 mL of water and 1 mL of 20% methanol. […]
(§2) An Agilent 1100 system (Palo Alto, CA, USA) equipped with a vacuum degasser, a quaternary pump, and an auto-sampler were used. […] [26, 27, 28] were monitored for DHC and IS, respectively. […]

[3] = Urinary cumulative excretion of DHC after a single oral dose; format: in vivo, Sprague-Dawley rats; conditions: rat, single oral dose 97.5 mg/kg, over 96 h
Method: as §1
For urinary excretion study, four rats were used. DHC was administered as described above. The animals were housed in stainless steel metabolic cages with free access to tap water. Urine was collected at 0–4, 4–8, 8–12, 12–24, 24–36, 36–60, 60–84 and 84–96 h post-dosing and kept at −20 °C after the volume of each collection was recorded.
A 200 μL aliquot of plasma was vortex mixed for 3 min with 200 μL of water and 50 μL of IS (800 ng/mL). After centrifugation at 9000 rpm for 10 min, all the supernatant was loaded onto an Oasis HLB cartridge (Waters, Milford, MA, USA), which was pre-conditioned with 1 mL of methanol followed by 1 mL of deionized water. The loaded-cartridge was sequentially washed with 1 mL of water and 1 mL of 20% methanol. The analytes were then eluted with 1 mL of methanol in water containing 2% formic acid. […]
as §2

[4] = Stability of DHC in rat plasma (QC samples); format: in vitro ADME; conditions: for Cdec (mean ± S.D.): n = 6
Method: This is evidenced by the fact that the responses varied no more than ±10% over 24 h at the QC concentrations. After storage at ambient temperature for 12 h, the concentration of DHC in the plasma deviated less than ±13% from those in freshly-spiked plasma (Table 3).
The stability of DHC in rat plasma was evaluated under conditions that mimicked those likely to be encountered during sample storage and analytical processing. Six replicates of QC samples were analyzed for DHC. The QC samples were frozen and stored at −20 °C for a week. The concentration variation of the DHC in the prepared QC samples was detected after (i) three cycles of freezing and thawing, (ii) placement in an auto-sampler at 4 °C for 24 h, and (iii) storing at ambient temperature for 12 h.

[5] = set-up: method as in PMID 16956957; conditions: 1 h after oral administration, in situ intestinal loop; cited from earlier work
[6] = test system: P-glycoprotein; set-up: method as in PMID 12530470, PMID 12434406; conditions: efflux in Caco-2 cells and the liver; cited from earlier work
[7] = test system: cytochrome P450 3A4; set-up: method as in PMID 16133554; conditions: cited from earlier work
[8] = after three freeze-thaw cycles, Cnom 1.25 ng/mL
[9] = after three freeze-thaw cycles, Cnom 25 ng/mL
[10] = after three freeze-thaw cycles, Cnom 250 ng/mL
[11] = postpreparative stability (24 h, auto-sampler 4 °C), Cnom 1.25 ng/mL
[12] = postpreparative stability (24 h, auto-sampler 4 °C), Cnom 25 ng/mL
[13] = postpreparative stability (24 h, auto-sampler 4 °C), Cnom 250 ng/mL
[14] = short-term temperature stability (12 h, ambient), Cnom 1.25 ng/mL
[15] = short-term temperature stability (12 h, ambient), Cnom 25 ng/mL
[16] = short-term temperature stability (12 h, ambient), Cnom 250 ng/mL

## COc1cc2c(cc1OC)-c1c(C)c3ccc(OC)c(OC)c3c[n+]1CC2 [DHC, dehydrocorydaline]
[1]
  AUC(0-inf): 59.1 ± 11.5 ng·h/mL
  AUC(0-t): 52.4 ± 12.8 ng·h/mL
  Cmax: 9.4 ± 4.18 ng/mL
  Tmax: 1 h
  half-life: 7.93 ± 1.34 h
[1]; read-out: Ke (converted)
  k el: 2.5e-05 s⁻¹
[2]; in 2 h
  mean accumulated amount of DHC in bile: 12.2% ± 7.38%
[2]; up to 48 h
  total biliary excretion of unchanged DHC: 60.04% ± 24.66%
[3]
  mean accumulated amount of DHC in urine: 0.17% ± 0.13%
[4]; after three cycles of freezing and thawing, rat plasma
  variation in the concentration from nominal concentration: ≤ 15%
[4]; [8]
  Relative Error: −0.27%
  Cdec (mean ± S.D.): 1.25 ± 0.1 ng/mL
[4]; [9]
  Relative Error: 10%
  Cdec (mean ± S.D.): 27.5 ± 0.87 ng/mL
[4]; [10]
  Relative Error: 9.07%
  Cdec (mean ± S.D.): 272.67 ± 8.14 ng/mL
[4]; [11]
  Relative Error: −5.47%
  Cdec (mean ± S.D.): 1.18 ± 0.06 ng/mL
[4]; [12]
  Relative Error: 4.8%
  Cdec (mean ± S.D.): 26.2 ± 0.86 ng/mL
[4]; [13]
  Relative Error: 8.14%
  Cdec (mean ± S.D.): 270.33 ± 9.42 ng/mL
[4]; processed samples in auto-sampler at 4 °C over 24 h, QC concentrations
  variation of responses: ≤ 10%
[4]; [14]
  Relative Error: −3.87%
  Cdec (mean ± S.D.): 1.2 ± 0.1 ng/mL
[4]; [15]
  Relative Error: −12.13%
  Cdec (mean ± S.D.): 21.97 ± 0.51 ng/mL
[4]; [16]
  Relative Error: −7.73%
  Cdec (mean ± S.D.): 230.67 ± 15.96 ng/mL
[4]; storage at ambient temperature for 12 h, rat plasma
  deviation of concentration from freshly-spiked plasma: < 13%

## COc1ccc2cc3[n+](cc2c1OC)CCc1cc2c(cc1-3)OCO2 [berberine]
[5]
  absorbed amount: 33.6 % of the given dose
[6]
  P-glycoprotein substrate: substrate of P-glycoprotein
[7]
  cytochrome P450 3A4 inhibition: weak cytochrome P450 3A4 inhibitor
